Consider 4 substances from patent US11105794B2, “In vitro nephrotoxicity screening assay” (Hoffmann-La Roche Inc., priority 2016, dated 2021).

Data set [1] has as its system A549 cells. Nature of the data set: EGF assay, A549 cells transfected with oligonucleotide.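 Also: values as percent of saline control.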 The following applies: A549, 48 hours after transfection. Format: cell-based, human. As to the method: (§1) A549 cells (ATCC CCL-185) were cultivated according to the manufacturer's instructions in A549 medium [F-12K Nut Mix (Gibco, 21127-022), 1% penicillin/streptomycin (Gibco: 15140-122), 10% FBS (Gibco 16000-044)].
(§2) Prior to treatment with oligonucleotides the A549 cells were seeded in 96 well plates at 3′000 cells per well in A549 regular medium and grown until 60% confluence. […]
(§3) A549 were cultivated as described in the “Materials and methods” section. At after at 50-60% confluence the oligonucleotides were transfected into the cells using 0.5 μl Lipofectamin (Invitrogen, 11668-019) in 25 μl OptiMEM® (GIBCO 31985062) and 1 ng or 10 ng oligonucleotide in the same volume OptiMEM. The cells were incubated over night at 37° C. The medium was changed using A459 regular medium+10 ng/ml EGF. 48 hours after transfection the medium was collected for EGF measurements and the cells were harvested for ATP measurements.

A further data set has as its system PCSK9 mRNA. Description: Target knock down (PCSK9 mRNA levels) in PTEC-TERT1 cells. Format: cell-based, human. The conditions noted are these: normalized to PPIB. As to the method:
For assessment of the target knock down (PCSK9 mRNA levels) total mRNA was extracted from the cells adding 100 μl of 1× RNA lysis mixture (QuantiGene® Sample Processing Kit, QS0101) directly into the wells according to the manufacturer's instructions. RNA lysis mixtures were kept at −80° C. until analysis. For gene expression analysis, 20 μl of lysates were mixed with an mRNA-capture magnetic beads sets (Panomics QuantiGene® Plex Set catalog #12697), incubated overnight, processed for branched DNA amplification and analyzed according to the manufacturer's instructions (Panomics QuantiGene® Plex Assay kit, QP1015). The PPIB probe was used as housekeeping gene for normalization. Average Fluoresence Intensity (FI) and standard deviation of 3 biological replicates were calculated and normalized on vehicle control. The results are shown in table 11, and represent the average of three identical treatments.

For data set [2], the system named is PTEC-TERT1 cells. Description: EGF assay, supernatant of PTEC-TERT1 cells. The conditions noted are these: for Toxicity grade: from EGF, assay window saline vs toxic reference compound 4-1.
Method: (§4) Prior to treatment with oligonucleotides the PTEC-TERT1 were seeded into collagen I-coated 96-well plates (Corning, 356407) at a density of 40 000 and 20 000 cells/well respectively in PTEC medium and grown until confluence.
(§5) Oligonucleotides were dissolved in PBS and added to the cell culture at the given concentration, such as 10, 30 or 100 μM. The total volume of each well was 100 μl. PBS served as vehicle control.
(§6) When extra cellular markers, like EGF and KIM-1, were analyzed following the oligonucleotide treatment the medium was collected and stored at −20° C. until further analysis. […] The collected medium was stored at −20° C.
(§7) For analysis of human EGF, cell supernatants were thawed on ice, diluted 1:2 and 1:10 in sample dilution buffer (BioRad catalog # M60-009RDPD) and analyzed by Luminex®-based ELISA using human EGF beads (Bio-Plex Pro™ Human Cancer Biomarker Panel 2 EGF Set#171BC603M), or followed by analysis using the Bio-Plex® 200 Systems (BioRad) according to the manufacturer's instructions. Data are reported as mean concentrations and standard deviations of triplicate wells.
In data set [3] the test system is A549 cells. Description: Intracellular ATP assay, A549 cells transfected with oligonucleotide.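 Also: ATP as percent of saline control.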 Format: cell-based, human. The following applies: A549, 48 hours after transfection. As to the method:
as §1, §2
Each sample was tested in triplicate.
as §3

Data set [4] concerns Wistar Han Crl:WI(Han) male rats. Description: In vivo nephrotoxicity in rats. As to the method: Purpose bred Wistar Han Crl:WI(Han) male rats obtained from Charles River Laboratories at 7 to 8 weeks of age were divided into groups of 4 (table 1, exp. A) or 8 (table 1, exp. B) based on body weight and acclimatized for at least 5 days before dosing. The animals were housed under standard environmental conditions ([…], relative humidity 50±20%, a light/dark cycle 12 h/12 h, pelleted food and water ad libitum), were offered enriched environment in an AAALAC accredited facility and were regularly and carefully monitored. All procedures were in accordance with the respective local regulations and according to the animal permissions granted by the Institutional Animal Care and Use Committee. Test compounds were formulated in isotonic sterile saline, sterile filtered (0.22 μm), and dosed at 40 mg/kg on days 1 and 8 (2.5 ml/kg) in the intrascapular region. Control group animals received saline as vehicle control. On day 15 animals were orally administered tap water (10 ml/kg), and urine was collected on ice for 6 hours in metabolic cages. […] On day 15 the rats were sacrificed by an intraperitoneal injection of pentobarbital and exsanguinated. Kidney cortex samples were collected and fixed by immersion in 10% neutral buffered formalin, embedded in paraffin, sectioned to 5 μm and stained with hematoxylin and eosin (H&). The H&E sections were then scanned at 20× magnification using an Aperio ScanScope AT™ (Leica Biosystems) scanner and pictures were then captured via ImageScope™ software from the scanned images. One or more of the following parameters were assessed kidney weight, serum creatinine, urine protein, KIM-1 protein in urine, KIM-1 mRNA, kidney degeneration/regeneration and relative tubulotoxicity grade.

For data set [5], the system named is Primary human hepatocytes. Description: EGF assay, culture media of primary human hepatocytes.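 Also: values as percent of saline vehicle control.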 Format: cell-based. The following applies: 10 ng/ml EGF in medium. As to the method:
Cryopreserved human hepatocytes were suspended in William's Medium E (WME) without phenol red (Sigma W-1878) supplemented with 10% fetal calf serum, penicillin (100 U/ml), streptomycin (0.1 mg/ml) at a density of approx. 1×10^6 cells/ml and seeded into collagen-coated 96-well plates (Becton Dickinson AG, Allschwil, Switzerland) at a density of 0.4×10^5 cells/well. Cells were pre-cultured for 3 to 4 h allowing for attachment to cell culture plates before start of treatment with oligonucleotides.
Before oligonucleotide treatment the seeding medium was replaced by 90 μl of serum free WME.
The total volume of each well was 100 μl. PBS served as vehicle control.
Human primary hepatocytes were cultivated as described in the “Materials and methods” section with addition of 10 ng/ml of EGF to the medium. At confluence the cells were treated with oligonucleotide as described in the “Materials and methods” section, in concentrations of 10 or 100 μM.
The medium was obtained at day 3, and the EGF level was measured according to the assay described in the “Materials and methods” section.

In data set [6] the test system is Human primary proximal tubule epithelial cells (PTEC). Description: EGF assay, supernatant of primary PTEC cells.
Method: Prior to treatment with oligonucleotides the primary PTEC cells were seeded into collagen I-coated 96-well plates (Corning, 356407) at a density of 40 000 and 20 000 cells/well respectively in PTEC medium and grown until confluence.
as §5, §6
For analysis of human EGF, cell supernatants were thawed on ice, diluted 1:2 and 1:10 in sample dilution buffer (BioRad catalog # M60-009RDPD) and analyzed by Luminex®-based ELISA using human EGF beads (Bio-Plex Pro™ Human Cancer Biomarker Panel 2 EGF Set#171BC603M), or followed by analysis using the Bio-Plex® 200 Systems (BioRad) according to the manufacturer's instructions. Data are reported as mean concentrations and standard deviations of triplicate wells. An increase of EGF levels above 200% was considered as predictive for nephrotoxicity.
The test system of data set [7] is PTEC-TERT1 cells. Nature of the data set: Morphological changes of PTEC-TERT1 cells upon oligonucleotide treatment. Format: cell-based, human. The following applies: 100 μM oligonucleotide, 7 days, bright field microscopy, vs saline. As to the method: PTEC-TERT1 cells were cultures as described in the “Materials and methods” section. To mimic the physiological exposure of renal tubules to circulating naked oligonucleotide (i.e. without assistance of delivery technology, herein termed gymnosis or gymnotic delivery), confluent monolayers of PTEC-TERT1 cells were exposed to an aqueous solution of 100 μM oligonucleotide. The medium was replaced every three days including 100 μM fresh oligonucleotide in the fresh medium.
After 7 days of treatment the morphological alterations in the treated cell cultures were investigated under bright field microscopy.

The test system of data set [8] is PTEC-TERT1 cells.
Method: as §4, §5, §6, §7
The test system of data set [9] is PTEC-TERT1 cells. This is another data set of the same source.
Method: as §4, §5, §6
For analysis of human KIM-1, cell supernatants were thawed on ice, diluted 1:2 and 1:10 in sample dilution buffer (BioRad catalog # M60-009RDPD) and analyzed by Luminex®-based ELISA using human KIM-1 beads (Human Kidney Injury panel 4, Millipore HKI4MAG-99K-KIM1) followed by analysis using the Bio-Plex® 200 Systems (BioRad) according to the manufacturer's instructions. Data are reported as mean concentrations and standard deviations of triplicate wells. An increase of KIM-1 levels above 200% was considered as predictive for nephrotoxicity.
Setting [10] is: PTEC-TERT1, Day 3, 11 μM (Table 3).
Where [11] appears, read: PTEC-TERT1, Day 3, 33 μM (Table 3).
[12] abbreviates: PTEC-TERT1, Day 3, 100 μM (Table 3).
The mark [13] stands for this setting: PTEC-TERT1, Day 7, 11 μM (Table 3).
Setting [14] is: PTEC-TERT1, Day 7, 33 μM (Table 3).
Setting [15] is: PTEC-TERT1, Day 7, 100 μM (Table 3).
Where [16] appears, read: PTEC-TERT1, Day 10, 11 μM (Table 3).
Where [17] appears, read: PTEC-TERT1, Day 10, 33 μM (Table 3).
[18] abbreviates: PTEC-TERT1, Day 10, 100 μM (Table 3).

l = locked nucleic acid (LNA); d = 2'-deoxy (DNA)

On to “AATgctacaaaaCCCA (antisense AATGCTACAAAACCCA; sugars from the 5' end l3 d9 l4, backbone and methylation of C not given here) [Compound 2-1]”, for which the EGF in the data set with A549 cells [1] (1 ng oligonucleotide) worked out at 80 % saline; with A549 cells [1] (10 ng oligonucleotide), 161 % saline; in the data set on PTEC-TERT1 cells [2] (setting [10]), 135 % saline; with PTEC-TERT1 cells [2] (setting [11]), 192 % saline; with PTEC-TERT1 cells [2] (setting [12]), 172 % saline; in the data set with PTEC-TERT1 cells [2] (setting [13]) it was 69 % saline. In addition, the EGF with PTEC-TERT1 cells [2] (setting [14]) was found to be 88 % saline; in the data set with PTEC-TERT1 cells [2] (setting [15]), 117 % saline; with PTEC-TERT1 cells [2] (setting [16]) it was 47 % saline; in the data set on PTEC-TERT1 cells [2] (setting [17]), 63 % saline; in the data set with PTEC-TERT1 cells [2] (setting [18]), 154 % saline; in data set [5] (day 3, 10 μM) it was 122 % saline. Moreover, the EGF in data set [5] (day 3, 100 μM) is recorded as 211 % saline. For the same substance, the “PCSK9 mRNA” value with PCSK9 mRNA (PTEC-TERT1, EGF 0 ng/ml in medium) is reported as 1.73 % of saline; with PCSK9 mRNA (PTEC-TERT1, EGF 10 ng/ml in medium), 1.02 % of saline. Further, the values for the ATP in the data set with A549 cells [3] (1 ng oligonucleotide) and with A549 cells [3] (10 ng oligonucleotide) were 96 % saline and 59 % saline, respectively. Also, in [4] (40 mg/kg on days 1 and 8, assessed day 15, 40 mg/kg), the “In vivo nephrotoxicity / in vivo grade of toxicity” value is “low and Low”.
As for “ACTgctttccactCTG (ACTGCTTTCCACTCTG; chemistry not given here) [Compound 8-1]”, the EGF in the data set on A549 cells [1] (1 ng oligonucleotide) was determined as 140 % saline; with A549 cells [1] (10 ng oligonucleotide), 233 % saline; with PTEC-TERT1 cells [2] (PTEC-TERT1, 6 days, 10 μM oligonucleotide (Table 7)), 8412 % saline; in the data set on PTEC-TERT1 cells [2] (PTEC-TERT1, 6 days, 30 μM oligonucleotide (Table 7)) it was 15126 % saline; in the data set on PTEC-TERT1 cells [2] (PTEC-TERT1, Day 6, 10 μM (Table 4)), 1153 % saline; in the data set on PTEC-TERT1 cells [2] (PTEC-TERT1, Day 6, 30 μM (Table 4)), 1359 % saline. This substance also returned an EGF with PTEC-TERT1 cells [2] (PTEC-TERT1, Day 6, 100 μM (Table 4)) of 1545 % saline. Moreover, the Toxicity grade turned out to be 323 with PTEC-TERT1 cells [2] (PTEC-TERT1, 6 days, 10 μM) and 208 with PTEC-TERT1 cells [2] (PTEC-TERT1, 6 days, 30 μM). Further, the values for the ATP in the data set with A549 cells [3] (1 ng oligonucleotide) and in the data set on A549 cells [3] (10 ng oligonucleotide) were 101 % saline and 58 % saline, respectively.
As for “CGTcagtatgcgAATc (CGTCAGTATGCGAATC; chemistry not given here) [Compound 1-1]”, the EGF in data set [6] (Day 3, 3 μM) is 95 % saline; in data set [6] (Day 3, 10 μM) it was 99 % saline; in [6] (Day 3, 30 μM), 112 % saline; in [6] (Day 3, 100 μM), 120 % saline; in data set [6] (Day 6, 3 μM) it was 62 % saline; in [6] (Day 6, 10 μM) it was 71 % saline. Besides, the EGF in [6] (Day 6, 30 μM) stood at 77 % saline; in data set [6] (Day 6, 100 μM) it was 98 % saline; in the data set on A549 cells [1] (1 ng oligonucleotide) it was 69 % saline; with A549 cells [1] (10 ng oligonucleotide), 75 % saline; with PTEC-TERT1 cells [2] (PTEC-TERT1, Day 3, 3 μM (Table 2)), 88 % saline; with PTEC-TERT1 cells [2] (PTEC-TERT1, Day 3, 10 μM (Table 2)), 93 % saline. Also, the EGF in the data set on PTEC-TERT1 cells [2] (setting [10]) came to 145 % saline; in the data set with PTEC-TERT1 cells [2] (PTEC-TERT1, Day 3, 30 μM (Table 2)), 108 % saline; with PTEC-TERT1 cells [2] (setting [11]) it was 214 % saline; in the data set on PTEC-TERT1 cells [2] (PTEC-TERT1, Day 3, 100 μM (Table 2)), 119 % saline; in the data set with PTEC-TERT1 cells [2] (setting [12]), 137 % saline; with PTEC-TERT1 cells [2] (PTEC-TERT1, Day 6, 3 μM (Table 2)), 124 % saline. Besides, the EGF was 152 % saline in the data set on PTEC-TERT1 cells [2] (PTEC-TERT1, Day 6, 10 μM (Table 2)); 180 % saline in the data set on PTEC-TERT1 cells [2] (PTEC-TERT1, Day 6, 30 μM (Table 2)); 172 % saline in the data set with PTEC-TERT1 cells [2] (PTEC-TERT1, Day 6, 100 μM (Table 2)); 94 % saline in the data set on PTEC-TERT1 cells [2] (setting [13]); 122 % saline in the data set with PTEC-TERT1 cells [2] (setting [14]); 135 % saline with PTEC-TERT1 cells [2] (setting [15]). Moreover, the EGF with PTEC-TERT1 cells [2] (setting [16]) came to 32 % saline; in the data set with PTEC-TERT1 cells [2] (setting [17]) it was 41 % saline; with PTEC-TERT1 cells [2] (setting [18]) it was 59 % saline; in data set [5] (day 3, 10 μM), 123 % saline; in [5] (day 3, 100 μM), 159 % saline. The morphological changes entry in the data set with PTEC-TERT1 cells [7] is on record as “did not show any morphological changes”. Besides, the ATP in the data set with A549 cells [3] (1 ng oligonucleotide) was determined as 89 % saline; in the data set on A549 cells [3] (10 ng oligonucleotide), 100 % saline.
Take “Compound 20-1: antisense oligonucleotide comprising 2′-O-methoxyethyl-RNA (MOE) modifications, targeting sodium-glucose co-transporter 2 (SGLT2), SEQ ID NO 20 (GGCATGAGCTTC; MOE modifications, pattern not given here)”: in the data set with PTEC-TERT1 cells [8], the “prediction of in vivo nephrotoxicity with EGF as biomarker” value is “could be predicted”. Besides, the “predictive KIM-1 elevation” value in the data set on PTEC-TERT1 cells [9] is “observed”. Besides, the “In vivo nephrotoxicity / in vivo grade of toxicity” value in data set [4] (40 mg/kg on days 1 and 8, assessed day 15) is on record as “low/medium”.
